In patent US20260344668A1, “PHENYLPYRAZOLE COMPOUND, AND PLANT DISEASE CONTROL METHOD” (priority 2022, published 2026):

Legend:
[1] = test system: Phakopsora pachyrhizi; experiment: Test Example 15 Control Test Against Soybean Rust Fungus (spore germination, 96 well titer plate); type: cell-based; conditions: treatment concentration 1 ppm, 23° C., several hours
Method in brief: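 Compound in DMSO was added to an aqueous Phakopsora pachyrhizi spore suspension (1.0×10^4/mL) and incubated several hours at 23° C. Germinated spores were counted relative to DMSO-only wells.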

[2] = test system: Phakopsora pachyrhizi; experiment: Test Example 11 Control Test Against Soybean Rust (pot test, spraying before inoculation); type: in vivo; conditions: 200 ppm foliage spray, soybeans (Kurosengoku), inoculated after 2 to 5 days
Method in brief: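 Soybeans (cv. Kurosengoku), grown 10–14 days in pots, foliar-sprayed with formulated compound at 200 ppm, inoculated 2–5 days later with Phakopsora pachyrhizi spores. Kept humid 1–2 days at 23 °C day/20 °C night, then greenhouse 12 days; lesion area scored against unsprayed plants.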

[3] = test system: Cladosporium carpophilum; experiment: Test Example 5 Control Test Against Peach Scab Fungus (96 well titer plate growth); type: cell-based; conditions: 1 μL of 150 ppm DMSO solution + 150 μL PDB medium, 18° C., 5 days, absorbance at 550 nm
Protocol: (§1) The term of “non-treated well” in Test Example 4, Test Example 5, and Test Example 6 represents a well wherein a test was carried out under the same conditions as those described in each Test Example except for dispensing DMSO instead of a diluted solution with DMSO comprising the Present compound. Also, the term of “non-treated” in Test Examples 15 to 17 represents a test which was carried out under the same conditions as those described in each Test Example except for dispensing DMSO instead of a diluted solution with DMSO comprising the Present compound. Also, the term of “non-treated leaf disk” in Test Example 7 represents a leaf disk wherein a test was carried out under the same conditions as those described in the Test Example except for dispensing DMSO instead of a diluted solution with DMSO comprising the Present compound. Also, the term of “non-treated” in Test Example 10 and Test Example 11 means that a diluted solution with water of a formulation comprising the Present compound was not sprayed.
Each of the Present compound 79, 80, 81, 89, 92, 93, 96, or 99 was diluted with DMSO to obtain a diluted solution containing 150 ppm of each compound, and 1 μL of the diluted solution was dispensed into a titer plate (96 well), and thereto was then dispensed 150 μL of a potato dextrose broth medium (PDB medium) to which spores of Cladosporium carpophilum were inoculated in advance. This plate was cultured at 18° C. for 5 days, thereby allowing Cladosporium carpophilum to undergo proliferation, and the absorbance at 550 nm of each well of the titer plate was then measured to determine a degree of growth of Cladosporium carpophilum. As a result, the degree of growth in the well treated with each of the above Present compound was 50% or less relative to the degree of growth in the non-treated well.

[4] = test system: soybean rust fungus (Phakopsora pachyrhizi) having an amino acid substitution of F129L in a mitochondrial cytochrome b protein; experiment: Test Example 7 Control Test Against Soybean Rust (leaf disk); type: in vivo; conditions: 200 ppm, 10 μL per soybean leaf disk (cultivar: Kurosengoku), inoculated after 1 day
Method in brief: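 Soybean (Kurosengoku) leaf disks of 1 cm on 1.2% agar were sprayed with compound in a DMSO/xylene/Sorpol emulsion diluted in water to a prescribed concentration. One day later they were spray-inoculated with F129L cytochrome b mutant P. pachyrhizi spores (1.0×10^5/mL) and kept at 23 °C, 60% humidity, 6 h light, for about 13 days. Lesion area was compared with DMSO-treated disks.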

[5] = test system: Cochliobolus miyabeanus; experiment: Test Example 6 Control Test Against Rice Brown Spot Fungus (96 well titer plate growth); type: cell-based; conditions: 1 μL of 150 ppm DMSO solution + 150 μL YB liquid medium, 23° C., 3 days, absorbance at 550 nm
Protocol: as §1
Each of the Present compound 17, 33, 36, 37, 39, 40, 41, 42, 43, 44, 48, 49, 50, 51, 52, 53, 62, 68, 69, 70, 71, 76, 77, 79, 80, 81, 82, 83, 84, or 97 was diluted with DMSO to obtain a diluted solution containing 150 ppm of each compound, and 1 μL of the diluted solution was dispensed into a titer plate (96 well), and thereto was then dispensed 150 μL of a YB liquid medium to which spores of Cochliobolus miyabeanus were inoculated in advance. This plate was cultured at 23° C. for 3 days, thereby allowing Cochliobolus miyabeanus to undergo proliferation, and the absorbance at 550 nm of each well of the titer plate was then measured to determine a degree of growth of Cochliobolus miyabeanus. As a result, the degree of growth in the well treated with each of the above Present compounds was 50% or less relative to the degree of growth in the non-treated well.

[6] = test system: Phakopsora pachyrhizi; experiment: Test Example 16 Control Test Against Soybean Rust Fungus (spore germination, petri dish); type: cell-based; conditions: treatment concentration 10 ppm, 23° C., 1 day
Protocol: as §1
An agar medium (agar concentration: 1.0%) (3 mL) was placed in a plastic petri dish having a diameter of 3.5 cm, and solidified. Each Present compound was diluted with DMSO in such a way that the resulting diluted solution containing 10000 ppm of the compound, and said solution (1 μL) and an aqueous suspension (1.0×10^4/mL) (999 μL) of spores of Phakopsora pachyrhizi to which spores of Phakopsora pachyrhizi were suspended were mixed, and then the resulting mixture was dispensed into the plastic petri dish. This plastic petri dish was cultured at 23° C. for 1 day, and then germinated spores of Phakopsora pachyrhizi were counted. As a result, when the treatment concentration was 10 ppm, and any one of the Present compound 9, 10, 28, 29, or 32 was used as the test compound to carry out the test, the number of germinated spores in each plastic petri dish using the above each Present compound as the test compound was 50% or less relative to the number of germinated spores in the non-treated plastic petri dish.

[7] = test system: Botrytis cinerea; experiment: Test Example 4 Control Test Against Cucumber Botrytis Rot Fungus (96 well titer plate growth); type: cell-based; conditions: 1 μL of 150 ppm DMSO solution + 150 μL complete medium, 18° C., 4 days, absorbance at 550 nm
Protocol: The term of “non-treated well” in Test Example 4, Test Example 5, and Test Example 6 represents a well wherein a test was carried out under the same conditions as those described in each Test Example except for dispensing DMSO instead of a diluted solution with DMSO comprising the Present compound. Also, the term of “non-treated” in Test Examples 15 to 17 represents a test which was carried out under the same conditions as those described in each Test Example except for dispensing DMSO instead of a diluted solution with DMSO comprising the Present compound. Also, the term of “non-treated leaf disk” in Test Example 7 represents a leaf disk wherein a test was carried out under the same conditions as those described in the Test Example except for dispensing DMSO instead of a diluted solution with DMSO comprising the Present compound. […]
The Present compound 24 was diluted with DMSO to obtain a diluted solution containing 150 ppm of the compound, and 1 μL of the diluted solution was dispensed into a titer plate (96 well), and thereto was then dispensed 150 μL of a complete medium to which spores of Botrytis cinerea were inoculated in advance. This plate was cultured at 18° C. for 4 days, thereby allowing Botrytis cinerea to undergo proliferation, and the absorbance at 550 nm of each well of the titer plate was then measured to determine a degree of growth of Botrytis cinerea. […]

[8] = test system: Septoria tritici; experiment: Test Example 10 Control Test Against Wheat Leaf Blotch (pot test); type: in vivo; conditions: 200 ppm foliage spray, wheat (Apogee), inoculated after 4 days
Protocol: as §1
A plastic pot was filled with soil, wheat (cultivar: Apogee) was seeded thereto, and cultured in a greenhouse for 10 days. […]

| Structure (SMILES) | number of germinated spores relative to the non-treated well [1] [%] | lesion area relative to the lesion area in the non-treated soybeans [2] [%] | degree of growth relative to the degree of growth in the non-treated well [3] [%] | lesion area relative to the lesion area of non-treated leaf disk [4] [%] | degree of growth relative to the degree of growth in the non-treated well [5] [%] | number of germinated spores relative to the non-treated plastic petri dish [6] [%] | degree of growth relative to the degree of growth in the non-treated well [7] [%] | lesion area relative to the lesion area in the non-treated wheat [8] [%] |
| --- | --- | --- | --- | --- | --- | --- | --- | --- |
| O=S(=O)(c1cccs1)n1ccc(-c2ccc(F)c(F)c2)n1 [compound 93] | ≤ 50 | ≤ 30 | ≤ 50 | ≤ 30 |  |  |  |  |
| O=S(=O)(c1ccoc1)n1ccc(-c2ccc(Cl)cc2)n1 [compound 80] | ≤ 50 | ≤ 30 | ≤ 50 | ≤ 30 | ≤ 50 |  |  |  |
| Cc1ccc(S(=O)(=O)n2ccc(-c3cccc(F)c3)n2)cc1 [compound 28] |  |  |  |  |  | ≤ 50 |  |  |
| COc1ccccc1S(=O)(=O)n1ccc(-c2cc(F)c(Br)c(F)c2)n1 [compound 24] |  |  |  |  |  |  | ≤ 50 |  |
| O=S(=O)(c1ccoc1)n1ccc(-c2ccc(F)cc2)n1 [compound 89] | ≤ 50 | ≤ 30 | ≤ 50 | ≤ 30 |  |  |  |  |
| Cn1cnc(S(=O)(=O)n2ccc(-c3cc(F)c(Br)c(F)c3)n2)c1 [compound 32] |  |  |  | ≤ 30 |  | ≤ 50 |  |  |
| O=S(=O)(c1cccs1)n1ccc(-c2ccc(Cl)cc2)n1 [compound 81] | ≤ 50 | ≤ 30 | ≤ 50 | ≤ 30 | ≤ 50 |  |  |  |
| O=S(=O)(c1ccoc1)n1ccc(-c2ccc(F)c(F)c2)n1 [compound 92] | ≤ 50 | ≤ 30 | ≤ 50 | ≤ 30 |  |  |  |  |
| Cc1ccc(-c2ccn(S(=O)(=O)c3cccnc3)n2)cc1 [compound 99] | ≤ 50 | ≤ 30 | ≤ 50 | ≤ 30 |  |  |  |  |
| O=S(=O)(c1cccnc1)n1ccc(-c2cc(F)c(Br)c(F)c2)n1 [compound 10] |  | ≤ 30 |  | ≤ 30 |  | ≤ 50 |  |  |
| Cn1cnc(S(=O)(=O)n2ccc(-c3cccc(C(=O)NC4CC4)c3)n2)c1 [compound 31] |  |  |  |  |  |  |  | ≤ 30 |
| O=S(=O)(c1ccccc1)n1ccc(-c2cc(F)c(Br)c(F)c2)n1 [compound 9] |  | ≤ 30 |  | ≤ 30 |  | ≤ 50 |  |  |
| O=S(=O)(c1cccs1)n1ccc(-c2cccc(F)c2)n1 [compound 96] | ≤ 50 | ≤ 30 | ≤ 50 | ≤ 30 |  |  |  |  |
| Cc1ccc(S(=O)(=O)n2ccc(-c3ccc(F)cc3)n2)cc1 [compound 29] |  |  |  |  |  | ≤ 50 |  |  |
| O=S(=O)(c1ccco1)n1ccc(-c2ccc(Cl)cc2)n1 [compound 79] | ≤ 50 | ≤ 30 | ≤ 50 | ≤ 30 | ≤ 50 |  |  |  |
| Cc1ccc(-c2ccn(S(=O)(=O)c3cccs3)n2)cc1F [compound 71] | ≤ 50 | ≤ 30 |  | ≤ 30 | ≤ 50 |  |  |  |
| O=S(=O)(c1ccccc1)n1ccc(-c2ccc(Cl)cc2)n1 [compound 4] |  |  |  |  |  |  |  | ≤ 30 |
| Cc1ccc(-c2ccn(S(=O)(=O)c3ccco3)n2)cc1 [compound 76] | ≤ 50 | ≤ 30 |  | ≤ 30 | ≤ 50 |  |  |  |
| Cc1ccc(-c2ccn(S(=O)(=O)c3ccoc3)n2)cc1 [compound 77] | ≤ 50 | ≤ 30 |  | ≤ 30 | ≤ 50 |  |  |  |
| O=S(=O)(c1cccc(F)c1)n1ccc(-c2cc(F)c(Br)c(F)c2)n1 [compound 17] | ≤ 50 | ≤ 30 |  | ≤ 30 | ≤ 50 |  |  |  |
| O=[N+]([O-])c1ccc(-c2ccn(S(=O)(=O)c3cccs3)n2)cc1 [compound 44] | ≤ 50 | ≤ 30 |  | ≤ 30 | ≤ 50 |  |  |  |
